Common to all, as to format: cell-based
Experiment [1] relates to Human prostate cancer cell lines (PC-3 cells). Put plainly: Measurement of cell death-inducing activity (Test Example 1). To be noted: PC-3, 48 h, 48 hours after addition, tested at 10, 1, 0.1, 0.025 and 0.00625 μmol/L, qualitative evaluation of 10 fields, read-out: Concentration showing the cell death-inducing activity (cell death-inducing rate not less than 40%). The method in brief: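 PC-3 cells seeded at 1×10^5 cells/well and grown 48 h at 37 °C, 5% CO2, then exposed to compound at 10, 1, 0.1, 0.025 and 0.00625 μmol/L (DMSO control) for a further 48 h. Activity was called where cell death-inducing rate was not less than 40%.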

The test system is the same in experiment [2]. Put plainly: Calculation of IC50 value, cell proliferation inhibitory activity by XTT assay, PC-3 cells (Test Example 2). To be noted: 72 hours culture with test substance, read-out: Cell proliferation inhibitory activity (IC50 value calculated from XTT assay), concentration showing 50% inhibitory activity, human prostate cancer cell lines (PC-3). On the procedure:
(§1) Human prostate cancer cell lines (PC-3 cells) and human fibrosarcoma cell lines (HT1080 cells) were seeded to 96-well microplates so as to provide a density of 1,300 cells/well and that of 3,100 cells/well, respectively. In the presence of 5% CO2 at 37° C., the PC-3 cells and the HT1080 cells were cultured for 48 hours and 24 hours, respectively. Thereafter, each one of test substances was added to each well. As a control of a medical agent, DMSO was added. After the addition, both cells were continuously cultured for 72 hours. Then, an XTT labeling reagent containing 1 mg/mL of sodium 3′-[1-(phenylaminocarbonyl)-3,4-tetrazolium]-bis(4-methoxy-6-nitro)benzenesulfonate hydrate (XTT) and an electronic coupling reagent containing 1.25 mM N-methyl dibenzopyrazine methyl sulfate (PMS) were mixed at a ratio of 50:1 to give an XTT labeling mixture. The XTT labeling mixture was added to each well in an amount of 50 μL per well, and the cells were cultured for another 4 hours. A culture solution containing a test substance was used as a blank, and the absorbencies of a culture solution containing the XTT labeling mixture at a measurement wavelength (450 nm) and a control wavelength (650 nm) were measured by a plate reader. The difference between these absorbencies was evaluated as an activity of dehydrogenase of mitochondria derived from living cells. With respect to the following model formula of sigmoid curve, the convergent solution of each variable (gain, range, base and α) that minimize the residual sum of squares of the difference between these absorbencies and regressive prediction was determined, and then IC50 (=e^α) of each test substance was calculated.
The IC50 values of the compounds represented by the formula (1) or the salts thereof on two cancer cell lines according to the method of Test Example 2 were calculated, and the results are shown in Table A.

The subject of experiment [3] is human fibrosarcoma cell lines (HT1080 cells). Put plainly: Calculation of IC50 value, cell proliferation inhibitory activity by XTT assay, HT1080 cells (Test Example 2). The procedure:
as §1, with “Then, an XTT labeling reagent containing 1 mg/mL of sodium 3′-[1-(phenylaminocarbonyl)-3,4-tetrazolium]-bis(4-methoxy-6-nitro)benzenesulfonate hydrate (XTT) and an electronic coupling reagent containing 1.25 mM N-methyl dibenzopyrazine methyl sulfate (PMS) were mixed at a ratio of 50:1 to give an XTT labeling mixture.” left out

Setting [4] is: HT1080 cells, 72 hours culture with test substance, XTT assay, read-out: Cell proliferation inhibitory activity (IC50 value calculated from XTT assay), concentration showing 50% inhibitory activity, human fibrosarcoma cell lines (HT1080).

Read-outs that look alike come from different tables or passages of the source.

As for `COc1cc(Cl)ccc1-c1nc(C)c(NC(=O)OCc2ccc3c(c2)nc2n3CCCC2)s1` [Example 9-1, [2-(4-Chloro-2-methoxyphenyl)-4-methylthiazol-5-yl]carbamic acid 1,2,3,4-tetrahydrobenzo[4,5]imidazo[1,2-a]pyridin-7-ylmethyl ester], in experiment [1], the minimal effective concentration worked out at 0.025 µM. Moreover, the figures for the IC50 in experiment [2] and in experiment [3] (setting [4]) were 6.7 nM and 15.1 nM, respectively.
For the compound `CCn1cc2cc(COC(=O)Nc3sc(-c4ccc(C)cc4OC)nc3C)ccc2n1` [Example 9-155], in experiment [1], the minimal effective concentration stood at 0.025 µM. Moreover, the IC50 in experiment [2] is 6.77 nM.
For `CCn1cc2cc(NC(=O)OCc3sc(-c4ccc(C)cc4C)nc3C)ccc2n1` [Example 13-53], the minimal effective concentration in experiment [1] came out at 0.1 µM. The IC50 in experiment [2] was 6.35 nM.
Consider `COc1cc(C)ccc1-c1cc(COC(=O)Nc2ccc3c(c2)nc2n3CCOC2)n(C)n1` [Example 13-101], for which the minimal effective concentration in experiment [1] worked out at 0.00625 µM. For the same compound, the IC50 was 1.64 nM in experiment [2] and 4.19 nM in experiment [3] (setting [4]).
Turning to `COc1cc(C)ccc1-c1nc(C)c(NC(=O)OCc2ccc3c(c2)nc2n3CCOC2)s1` [Example 9-94], the minimal effective concentration in experiment [1] was 0.00625 µM. Also, the values for the IC50 in experiment [2] and in experiment [3] (72 h) were 0.56 nM and 1.75 nM, respectively.
As for `CCn1nnc2cc(COC(=O)Nc3sc(-c4ccc(C)cc4OC)nc3C)ccc21` [Example 9-25], the IC50 is 0.81 nM in experiment [2] and 1.64 nM in experiment [3] (read-out: Cell proliferation inhibitory activity (IC50 value calculated from XTT assay), concentration showing 50% inhibitory activity, human fibrosarcoma cell lines (HT1080), HT1080 cells, 72 hours culture with test substance, XTT assay).
Consider `CCn1cnc2cc(COC(=O)Nc3sc(-c4ccccc4OC)nc3C)ccc21` [Example 9-57], for which, in experiment [1], the minimal effective concentration was 0.025 µM. Besides, the IC50 in experiment [2] is 2.17 nM.
For `CCn1cnc2cc(NC(=O)OCc3cc(-c4ccc(C)cc4OC)nn3C)ccc21` [Example 13-90] the same measures were 0.00625 µM and 0.43 nM.
For `Cc1cc(/C=N/NC(=O)c2cnc(-c3ccccc3Cl)s2)cc(C)c1O` [Example 23-143], the minimal effective concentration in experiment [1] was 1 µM.
Still for that read-out and setting: under `COc1ccc(COC(=S)Nc2sc(-c3ccc(Cl)cc3OC)nc2C)cc1` [Example 28-1, [2-(4-Chloro-2-methoxyphenyl)-4-methylthiazol-5-yl]thiocarbamic acid O-(4-methoxybenzyl)ester] stands 10 µM; under `Cc1ccccc1-c1nc(C)c(NC(=O)OCc2ccc3c(c2)nc2n3CCC2)s1` [Example 9-99], 1 µM.
Still for that read-out and setting: under `CCn1nc(-c2ccc(C)cc2OC)cc1NC(=O)OCc1ccc2c(c1)nc1n2CCC1` [Example 9-262] stands 0.025 µM; under `Cc1ccc(/C=N/NC(=O)c2sc(-c3ccc(Cl)cc3)nc2C)cc1O` [Example 23-35], 10 µM.
With `COc1ccc(-c2cc(NC(=O)OCc3ccc4nn(C)cc4c3)n(C)n2)c(OC)c1` [Example 9-294], the minimal effective concentration in experiment [1] came out at 1 µM.
Turning to `COc1ccccc1-c1nc(C)c(NC(=O)OCc2ccc3c(c2)nc2n3CCC2)s1` [Example 9-101], the minimal effective concentration in experiment [1] was 0.1 µM.
For the compound `Cc1cc(Cl)ccc1-c1nc(C)c(NC(=O)OCc2ccc3c(c2)ncn3C)s1` [Example 9-49], the minimal effective concentration in experiment [1] amounted to 0.00625 µM.
The same measure, in the same setting: for `COc1ccc(/C=N/N=C(\C)c2sc(-c3ccc(Cl)cc3)nc2C)cc1O` [Example 30-2] the value was 1 µM; for `Cc1ccccc1-c1nc(C)c(NC(=O)OCc2ccc3c(c2)nnn3C)s1` [Example 9-12], 1 µM; for `CCn1nc(-c2ccc(Cl)c(Cl)c2)cc1NC(=O)OCc1ccc2c(c1)ncn2C` [Example 9-211], 10 µM.
Still for that read-out and setting: under `Cc1ccccc1-c1ncc(C(=O)N/N=C/c2cc(C)c(O)c(C)c2)[nH]1` [Example 25-2, 2-(2-Methylphenyl)-3H-imidazole-4-carboxylic acid[1-(4-hydroxy-3,5-dimethylphenyl)methylidene]hydrazide] stands 10 µM; under `CCc1nc(-c2ccc(F)cc2C)sc1COC(=O)Nc1ccc2c(c1)nc1n2CCOC1` [Example 13-150], 0.025 µM; under `CCn1cnc2cc(COC(=O)Nc3cc(-c4ccc(Cl)cc4OC)nn3C)ccc21` [Example 9-223], 0.00625 µM.
On the same count and under the same terms, for `Cc1ccc(-c2nc(C)c(NC(=O)OCc3ccc4c(c3)nc(C)n4C)s2)c(C)c1` [Example 9-78] the value was 0.025 µM.
With `COc1ccccc1-c1nc(C)c(COC(=O)Nc2ccc3c(c2)nc2n3CCOC2)s1` [Example 13-22], the minimal effective concentration in experiment [1] turned out to be 10 µM.
Same read-out and setting: for `COc1cc(Cl)ccc1-c1nc(C)c(NC(=O)OCc2ccc3c(ccn3C)c2)s1` [Example 9-30] the value was 1 µM; for `CCn1nc(-c2ccc(Cl)cc2Cl)cc1NC(=O)OCc1ccc2c(c1)ncn2CC` [Example 9-210], 0.1 µM.

The values are drawn from patent publication US9200008B2 (ASKA PHARMACEUTICAL CO., LTD., priority 2010, dated 2015).
